Test results: patent US20230398130A1, “METHODS AND COMPOSITIONS FOR DIFFERENTIATING STEM CELLS” (Massachusetts Institute of Technology, priority 2020, published 2023)

Columns and labels:
[1] = test system: ISC-enriched organoids; experiment: Primary screen, 384-well 2.5-D organoid differentiation (ENR+CD, 6 days): carbachol-induced lysozyme secretion (LYZ.S); type: cell-based, murine; settings: for Dose.FC.LYZ.S (log 2 fold change) / Z.LYZ.S / SSMD.LYZ.S / Dose.FC.LYZ.S: primary screen; for Dose.FC.LYZ.S (log 2 fold change) / Dose.FC.LYZ.S (log 2 fold change, carbachol-induced lysozyme secretion): vs plate median; for Z.LYZ.S: standard z score; for SSMD.LYZ.S: strictly standardized mean difference; for Dose.FC.LYZ.S: FC vs plate median
Text: (§1) High-throughput screening.

[2] = test system: ISC-enriched organoids; experiment: Primary screen, 384-well 2.5-D organoid differentiation (ENR+CD, 6 days, Target Selective Inhibitor Library, vs whole-plate median): ATP (CellTiter-Glo 3D, CTG); settings: for Dose.FC.CTG (log 2 fold change) / Dose.FC.CTG (log 2 fold change, ATP): vs plate median; for Z.CTG: standard z score; for SSMD.CTG: strictly standardized mean difference; for Dose.FC.CTG: FC vs plate median
[3] = test system: ISC-enriched organoids; experiment: Primary screen, 384-well 2.5-D organoid differentiation (ENR+CD, 6 days): basal lysozyme secretion (LYZ.NS); type: cell-based, murine; settings: for Dose.FC.LYZ.NS (log 2 fold change) / Dose.FC.LYZ.NS (log 2 fold change, basal lysozyme secretion): vs plate median; for SSMD.LYZ.NS: strictly standardized mean difference; for Dose.FC.LYZ.NS: FC vs plate median; for Z.LYZ.NS: standard z score
Text: as §1

[4] = 1st of the 4 dose lines of the treatment (dose not given)
[5] = 2nd of the 4 dose lines of the treatment (dose not given)
[6] = 3rd of the 4 dose lines of the treatment (dose not given)
[7] = 4th of the 4 dose lines of the treatment (dose not given)
[8] = primary screen, 1st of the 4 dose lines of the treatment (dose not given)
[9] = primary screen, 2nd of the 4 dose lines of the treatment (dose not given)
[10] = primary screen, 3rd of the 4 dose lines of the treatment (dose not given)
[11] = primary screen, 4th of the 4 dose lines of the treatment (dose not given)

O=C(/C=C/c1ccccc1)NC(NC(=S)Nc1ccc(Cl)cc1)C(Cl)(Cl)Cl (stereo not shown) [Sal003]
Dose.FC.LYZ.S (log 2 fold change) ([1]; Dose 0.08 uM): 0.092 | Dose.FC.LYZ.S (log 2 fold change) ([1]; Dose 0.40 uM): 0.067 | Dose.FC.LYZ.S (log 2 fold change) ([1]; Dose 2.00 uM): 0.040 | Dose.FC.LYZ.S (log 2 fold change) ([1]; Dose 10.00 uM): −0.408 | Z.CTG (standard z score) ([2]; Dose 0.08 uM, primary screen): 0.456 | Dose.FC.CTG (log 2 fold change) ([2]; Dose 0.08 uM, primary screen): 0.191 | Z.CTG (standard z score) ([2]; Dose 0.40 uM, primary screen): 0.370 | Dose.FC.CTG (log 2 fold change) ([2]; Dose 0.40 uM, primary screen): 0.155 | Z.CTG (standard z score) ([2]; Dose 2.00 uM, primary screen): 0.468 | Dose.FC.CTG (log 2 fold change) ([2]; Dose 2.00 uM, primary screen): 0.196 | Z.CTG (standard z score) ([2]; Dose 10.00 uM, primary screen): −1.981 | Dose.FC.CTG (log 2 fold change) ([2]; Dose 10.00 uM, primary screen): −0.829 | Z.LYZ.NS (standard z score) ([3]; Dose 0.08 uM, primary screen): 1.013 | Dose.FC.LYZ.NS (log 2 fold change) ([3]; Dose 0.08 uM, primary screen): 0.116 | Z.LYZ.NS (standard z score) ([3]; Dose 0.40 uM, primary screen): 1.595 | Dose.FC.LYZ.NS (log 2 fold change) ([3]; Dose 0.40 uM, primary screen): 0.183 | Z.LYZ.NS (standard z score) ([3]; Dose 2.00 uM, primary screen): 0.670 | Dose.FC.LYZ.NS (log 2 fold change) ([3]; Dose 2.00 uM, primary screen): 0.077 | Z.LYZ.NS (standard z score) ([3]; Dose 10.00 uM, primary screen): −2.142 | Dose.FC.LYZ.NS (log 2 fold change) ([3]; Dose 10.00 uM, primary screen): −0.246

CC#CCn1c(N2CCC[C@@H](N)C2)nc2c1c(=O)n(Cc1nc(C)c3ccccc3n1)c(=O)n2C [Linagliptin]
Z.LYZ.S [1, 4]: 0.905 | Z.LYZ.S [1, 5]: 0.305 | Z.LYZ.S [1, 6]: −0.204 | Z.LYZ.S [1, 7]: 0.322 | SSMD.LYZ.S [1, 4]: 0.797 | SSMD.LYZ.S [1, 5]: 0.215 | SSMD.LYZ.S [1, 6]: −0.126 | SSMD.LYZ.S [1, 7]: 0.374 | Z.CTG ([2]; Dose 0.08 uM, primary screen): 0.389 | Z.CTG ([2]; Dose 0.40 uM, primary screen): 0.499 | Z.CTG ([2]; Dose 2.00 uM, primary screen): 0.054 | Z.CTG ([2]; Dose 10.00 uM, primary screen): −0.027 | SSMD.CTG [2, 8]: 0.299 | SSMD.CTG [2, 9]: 0.612 | SSMD.CTG [2, 10]: 0.047 | SSMD.CTG [2, 11]: −0.025 | SSMD.LYZ.NS [3, 8]: 1.046 | SSMD.LYZ.NS [3, 9]: 0.306 | SSMD.LYZ.NS [3, 10]: 0.118 | SSMD.LYZ.NS [3, 11]: 0.671

CCC(=O)Nc1cccc(Oc2nc(Nc3ccc(N4CCN(C)CC4)cc3OC)ncc2Cl)c1 [WZ4003]
Dose.FC.LYZ.S (log 2 fold change, carbachol-induced lysozyme secretion) ([1]; dose 0.08 uM): 0.117 | Dose.FC.LYZ.S (log 2 fold change, carbachol-induced lysozyme secretion) ([1]; dose 0.40 uM): −0.034 | Dose.FC.LYZ.S (log 2 fold change, carbachol-induced lysozyme secretion) ([1]; dose 2.00 uM): −0.035 | Dose.FC.LYZ.S (log 2 fold change, carbachol-induced lysozyme secretion) ([1]; dose 10.00 uM): −0.142 | Z.CTG (standard z score) ([2]; dose 0.08 uM): 0.896 | Dose.FC.CTG (log 2 fold change, ATP) ([2]; dose 0.08 uM): 0.375 | Z.CTG (standard z score) ([2]; dose 0.40 uM): 0.413 | Dose.FC.CTG (log 2 fold change, ATP) ([2]; dose 0.40 uM): 0.173 | Z.CTG (standard z score) ([2]; dose 2.00 uM): 0.180 | Dose.FC.CTG (log 2 fold change, ATP) ([2]; dose 2.00 uM): 0.076 | Z.CTG (standard z score) ([2]; dose 10.00 uM): −0.043 | Dose.FC.CTG (log 2 fold change, ATP) ([2]; dose 10.00 uM): −0.018 | Z.LYZ.NS (standard z score) ([3]; dose 0.08 uM): 0.644 | Dose.FC.LYZ.NS (log 2 fold change, basal lysozyme secretion) ([3]; dose 0.08 uM): 0.074 | Z.LYZ.NS (standard z score) ([3]; dose 0.40 uM): −0.359 | Dose.FC.LYZ.NS (log 2 fold change, basal lysozyme secretion) ([3]; dose 0.40 uM): −0.041 | Z.LYZ.NS (standard z score) ([3]; dose 2.00 uM): −0.151 | Dose.FC.LYZ.NS (log 2 fold change, basal lysozyme secretion) ([3]; dose 2.00 uM): −0.017 | Z.LYZ.NS (standard z score) ([3]; dose 10.00 uM): −0.850 | Dose.FC.LYZ.NS (log 2 fold change, basal lysozyme secretion) ([3]; dose 10.00 uM): −0.098

NC(=O)c1cccc(-c2cc(Nc3ccc(OC(F)(F)F)cc3)ncn2)c1 [GNF-2]
Dose.FC.LYZ.S ([1]; Dose 0.08 uM): 0.121 log 2 fold change | Dose.FC.LYZ.S ([1]; Dose 0.40 uM): 0.001 log 2 fold change | Dose.FC.LYZ.S ([1]; Dose 2.00 uM): 0.046 log 2 fold change | Dose.FC.LYZ.S ([1]; Dose 10.00 uM): −0.015 log 2 fold change | Dose.FC.CTG ([2]; Dose 0.08 uM, primary screen): 0.157 log 2 fold change | Z.CTG ([2]; Dose 0.08 uM, primary screen): 0.376 | Dose.FC.CTG ([2]; Dose 0.40 uM, primary screen): 0.090 log 2 fold change | Z.CTG ([2]; Dose 0.40 uM, primary screen): 0.214 | Dose.FC.CTG ([2]; Dose 2.00 uM, primary screen): 0.074 log 2 fold change | Z.CTG ([2]; Dose 2.00 uM, primary screen): 0.176 | Dose.FC.CTG ([2]; Dose 10.00 uM, primary screen): 0.100 log 2 fold change | Z.CTG ([2]; Dose 10.00 uM, primary screen): 0.240 | Dose.FC.LYZ.NS ([3]; Dose 0.08 uM, primary screen): 0.159 log 2 fold change | Z.LYZ.NS ([3]; Dose 0.08 uM, primary screen): 1.386 | Dose.FC.LYZ.NS ([3]; Dose 0.40 uM, primary screen): −0.024 log 2 fold change | Z.LYZ.NS ([3]; Dose 0.40 uM, primary screen): −0.206 | Dose.FC.LYZ.NS ([3]; Dose 2.00 uM, primary screen): 0.012 log 2 fold change | Z.LYZ.NS ([3]; Dose 2.00 uM, primary screen): 0.102 | Dose.FC.LYZ.NS ([3]; Dose 10.00 uM, primary screen): −0.033 log 2 fold change | Z.LYZ.NS ([3]; Dose 10.00 uM, primary screen): −0.286

CCn1c(-c2nonc2N)nc2c(C#CC(C)(C)O)ncc(OC[C@H]3CCCNC3)c21 [GSK690693]
Dose.FC.LYZ.S ([1]; Dose 0.08 uM): 0.019 log 2 fold change | Dose.FC.LYZ.S ([1]; Dose 0.40 uM): 0.155 log 2 fold change | Dose.FC.LYZ.S ([1]; Dose 2.00 uM): 0.124 log 2 fold change | Dose.FC.LYZ.S ([1]; Dose 10.00 uM): −0.153 log 2 fold change | Dose.FC.CTG ([2]; Dose 0.08 uM, primary screen): 0.129 log 2 fold change | Z.CTG ([2]; Dose 0.08 uM, primary screen): 0.308 | Dose.FC.CTG ([2]; Dose 0.40 uM, primary screen): 0.197 log 2 fold change | Z.CTG ([2]; Dose 0.40 uM, primary screen): 0.470 | Dose.FC.CTG ([2]; Dose 2.00 uM, primary screen): −0.027 log 2 fold change | Z.CTG ([2]; Dose 2.00 uM, primary screen): −0.064 | Dose.FC.CTG ([2]; Dose 10.00 uM, primary screen): −0.182 log 2 fold change | Z.CTG ([2]; Dose 10.00 uM, primary screen): −0.434 | Dose.FC.LYZ.NS ([3]; Dose 0.08 uM, primary screen): 0.045 log 2 fold change | Z.LYZ.NS ([3]; Dose 0.08 uM, primary screen): 0.388 | Dose.FC.LYZ.NS ([3]; Dose 0.40 uM, primary screen): 0.047 log 2 fold change | Z.LYZ.NS ([3]; Dose 0.40 uM, primary screen): 0.409 | Dose.FC.LYZ.NS ([3]; Dose 2.00 uM, primary screen): 0.122 log 2 fold change | Z.LYZ.NS ([3]; Dose 2.00 uM, primary screen): 1.060 | Dose.FC.LYZ.NS ([3]; Dose 10.00 uM, primary screen): −0.080 log 2 fold change | Z.LYZ.NS ([3]; Dose 10.00 uM, primary screen): −0.698
